Data on six compounds can be found in patent US5583248A, “Amino acid derivatives having antiviral activity” (Hoffmann-La Roche Inc., priority 1991, dated 1996).

In one experiment the target is T1, HIV protease (Human immunodeficiency virus type 1 group M subtype B, UniProt P04585).
T1 construct: HIV protease was expressed in E. coli; made in house; host or cells: E. coli
The experiment in a line: in vitro inhibition of HIV protease. The class given is biochemical. The note with it: substrate succinyl-Val-Ser-Gln-Asn-Phe-Pro-Ile isobutylamide; citrate buffer pH5.5; 37° C.; 50% inhibition; read-out: HIV protease inhibition I50. How it is done: HIV protease was expressed in E. coli and partially purified from soluble extracts of the bacterium by ammonium sulphate fractionation (0-30%). Protease activity was assayed using the protected heptapeptide succinyl-Val-Ser-Gln-Asn-Phe-Pro-Ile isobutylamide as the substrate. Cleavage of the substrate was quantified by measuring the production of H-Pro-Ile isobutyl-amide by the spectrophotometric assay of N-terminal proline,
1.25 mM of substrate were dissolved in 125 mM of citrate buffer (pH5.5) containing 0.125 mg/ml of Tween 20. […] of a solution of various concentrations of the test compound (dissolved in methanol or dimethyl sulphoxide and diluted with water containing 0.1% Tween 20) and […] of protease were added to […] of the above buffered substrate. Digestion was carried out at 37° C. for a fixed period of time and was terminated by the addition of 1 ml of colour reagent [30 mg/ml of isatin and 1.5 mg/ml of 2-(4-chlorobenzoyl)benzoic acid in 10% acetone in ethanol (vol./vol.)]. The solution was heated in a water bath and then the pigmented residues were re-dissolved in 1 ml of 1% pyrogallol in 33% water in acetone (wt./vol./vol.), The optical density of the solution was measured spectrophotometrically at 599 nm, The formation of H-Pro-Ile isobutylamide in the presence of the test compound was compared with controls and the concentration of test compound required to give 50% inhibition (I50) was determined by means of a graph plotted from the various concentrations of test compound used.

Experiment [1] deals with HTLV-III (strain RF) grown in C8166 cells. The experiment in a line: in vitro antiviral activity (activity against HIV). It counts as cell-based. The note with it: Human immunodeficiency virus 1, C8166, 72 h, read-out: Activity against HIV I50. How it is done:
This assay uses HTLV-III (strain RF) grown in C8166 cells (a human CD4^+ T lymphoblastoid line) using RPM1 1640 medium with bicarbonate buffer, antibiotics and 10% foetal bovine serum.
A suspension of cells is infected with ten times the TCID50 of virus and adsorption is allowed to proceed for 90 minutes at 37° C. The cells are washed three times with medium. The test is carried out in 6 ml tissue culture tubes containing 2×10^5 infected cells in 1.5 ml of medium. Test compounds are dissolved in either aqueous medium or dimethyl sulphoxide, according to solubility, and a […] solution of the test compound is added. The cultures are incubated at 37° C. for 72 hours in a humidified atmosphere containing 5% carbon dioxide in air. The cultures are then centrifuged and an aliquot of the supernatant is solubilized with Nonidet P40 and subjected to an antigen capture assay which uses a primary antiserum with particular reactivity against the viral p24 antigen and a horseradish peroxidase detection system. Colour generation is measured spectrophotometrically and is plotted against the concentration of test compound. The concentration which produces 50% protection is determined (I50).

Structures are written as SMILES.

`CC(C)(C)NC(=O)[C@@H]1CCCC[C@H]1C[C@@H](O)[C@H](Cc1ccccc1)NC(=O)[C@H](CC(N)=O)NC(=O)OCc1ccccc1` [Compound A, 2(S)-[3(S)-[[N-(benzyloxycarbonyl)-L-asparaginyl]amino]-2(R)-hydroxy-4-phenylbutyl]-N-tert.butyl-1(R)-cyclohexanecarboxamide]: the IC50 was determined as 2 nM at HIV protease and 46 nM in experiment [1]. As for `CC(C)(C)NC(=O)[C@@H]1CCCC[C@@H]1C[C@@H](O)[C@H](Cc1ccccc1)NC(=O)[C@H](CC(N)=O)NC(=O)OCc1ccccc1` [Compound B, 2(R)-[3(S)-[[N-(benzyloxycarbonyl)-L-asparaginyl]amino]-2(R)-hydroxy-4-phenylbutyl]-N-tert.butyl-1(R)-cyclohexanecarboxamide], the IC50 on HIV protease came out at 57 nM; in experiment [1] it was 1000 nM.

`CC(C)(C)NC(=O)[C@@H]1CCCC[C@H]1C[C@@H](O)[C@H](Cc1ccccc1)NC(=O)[C@H](CC(N)=O)NC(=O)c1ccc2ccccc2n1` [Compound C, 2(S)-[3(S)-[[N-(2-quinolylcarbonyl)-L-asparaginyl]amino]-2(R)-hydroxy-4-phenylbutyl]-N-tert.butyl-1(R)-cyclohexanecarboxamide]: the IC50 in experiment [1] came to 4 nM. Consider `CSC[C@H](NC(=O)OCc1ccccc1)C(=O)N[C@@H](Cc1ccccc1)[C@H](O)C[C@@H]1CCCC[C@H]1C(=O)NC(C)(C)C` [Compound D, 2(S)-[3(S)-[[N-(benzyloxycarbonyl)-S-methyl-L-cysteinyl]amino]-2(R)-hydroxy-4-phenylbutyl]-N-tert.butyl-1(R)-cyclohexanecarboxamide], for which the IC50 at HIV protease was 1.3 nM.

Consider `COC(=O)C[C@H](NC(=O)OCc1ccccc1)C(=O)N[C@@H](Cc1ccccc1)[C@H](O)C[C@@H]1CCCC[C@H]1C(=O)NC(C)(C)C` [Compound E, 2(S)-[3(S)-[[N-(benzyloxycarbonyl)-O-methyl-L-aspartyl]amino]-2(R)-hydroxy-4-phenylbutyl]-N-tert.butyl-1(R)-cyclohexanecarboxamide], for which, at HIV protease, the IC50 is 1.9 nM. The same measure, in the same setting: under `CC(C)(C)NC(=O)[C@@H]1CCCC[C@H]1C[C@@H](O)[C@H](Cc1ccccc1)NC(=O)[C@H](CC#N)NC(=O)OCc1ccccc1` [Compound F, 2(S)-[3(S)-[[N-(benzyloxycarbonyl)-3-cyano-L-alanyl]amino]-2(R)-hydroxy-4-phenylbutyl]-N-tert.butyl-1(R)-cyclohexanecarboxamide] stands 2 nM.
